In ChEMBL document CHEMBL1154412, “In vitro activity of telavancin against gram-positive clinical isolates recently obtained in Europe” (Antimicrob Agents Chemother, 2007):
Values after ≈ are worked out from the molar mass of the structure shown.

Assays:
Type in all cases: functional
[1] = test system: Staphylococcus aureus; assay: Antimicrobial activity against methicillin-susceptible Staphylococcus aureus after 20 to 24 hrs by broth microdilution method
[2] = test system: Staphylococcus aureus; assay: Antimicrobial activity against methicillin-resistant Staphylococcus aureus after 20 to 24 hrs by broth microdilution method
[3] = test system: Staphylococcus; assay: Antimicrobial activity against methicillin-resistant coagulase-negative Staphylococcus after 20 to 24 hrs by broth microdilution method
[4] = test system: Enterococcus faecalis; assay: Antimicrobial activity against vancomycin-susceptible Enterococcus faecalis after 20 to 24 hrs by broth microdilution method
[5] = test system: Enterococcus faecalis; assay: Antimicrobial activity against vancomycin-resistant Enterococcus faecalis after 20 to 24 hrs by broth microdilution method
[6] = test system: Enterococcus faecium; assay: Antibacterial activity against vancomycin-resistant Enterococcus faecium after 20 to 24 hrs by broth microdilution method
[7] = test system: Staphylococcus; assay: Antimicrobial activity against methicillin-susceptible coagulase-negative Staphylococcus after 20 to 24 hrs by broth microdilution method
[8] = test system: Streptococcus pneumoniae; assay: Antibacterial activity against penicillin-susceptible Streptococcus pneumoniae after 20 to 24 hrs by broth microdilution method
[9] = test system: Streptococcus pneumoniae; assay: Antibacterial activity against penicillin-intermediate Streptococcus pneumoniae after 20 to 24 hrs by broth microdilution method
[10] = test system: Streptococcus pneumoniae; assay: Antibacterial activity against penicillin-resistant Streptococcus pneumoniae after 20 to 24 hrs by broth microdilution method
[11] = test system: Streptococcus sp. 'group A'; assay: Antimicrobial activity against Streptococcus group A after 20 to 24 hrs by broth microdilution method
[12] = test system: Streptococcus sp. 'group B'; assay: Antimicrobial activity against Streptococcus group B after 20 to 24 hrs by broth microdilution method
[13] = test system: Streptococcus viridans; assay: Antimicrobial activity against Streptococcus viridans after 20 to 24 hrs by broth microdilution method
[14] = test system: Enterococcus faecium; assay: Antibacterial activity against vancomycin-susceptible Enterococcus faecium after 20 to 24 hrs by broth microdilution method

Compound | MIC50 [1] [µg/mL] | MIC90 [1] [µg/mL] | MIC50 [2] [µg/mL] | MIC90 [2] [µg/mL] | MIC50 [3] [µg/mL] | MIC90 [3] [µg/mL] | MIC50 [7] [µg/mL] | MIC90 [7] [µg/mL] | MIC50 [8] [µg/mL] | MIC90 [8] [µg/mL] | MIC50 [9] [µg/mL] | MIC90 [9] [µg/mL] | MIC50 [10] [µg/mL] | MIC90 [10] [µg/mL] | MIC50 [11] [µg/mL] | MIC90 [11] [µg/mL] | MIC50 [12] [µg/mL] | MIC90 [12] [µg/mL] | MIC50 [13] [µg/mL] | MIC90 [13] [µg/mL] | also measured
O=C(O)c1cn(C2CC2)c2cc(N3CCNCC3)c(F)cc2c1=O [CIPROFLOXACIN] | 0.25 (≈ 0.754 µM) | 1 (≈ 3.02 µM) | > 8 | > 8 | 2 (≈ 6.04 µM) | > 8 |  |  |  |  |  |  |  |  |  |  |  |  |  |  | MIC50 [4]: 1 µg/mL (≈ 3.02 µM); MIC90 [4]: > 32 µg/mL; MIC50 [5]: 1 µg/mL (≈ 3.02 µM); MIC50 [6]: 32 µg/mL (≈ 96.6 µM)
CC[C@H]1OC(=O)[C@H](C)C(=O)[C@H](C)[C@@H](O[C@@H]2O[C@H](C)C[C@H](N(C)C)[C@H]2O)[C@](C)(OC)C[C@@H](C)C(=O)[C@H](C)[C@H]2N(CCCCn3cnc(-c4cccnc4)c3)C(=O)O[C@]12C [TELITHROMYCIN] | 0.12 (≈ 0.148 µM) | 0.12 (≈ 0.148 µM) | 0.12 (≈ 0.148 µM) | > 8 | 0.12 (≈ 0.148 µM) | > 8 | 0.06 (≈ 0.0739 µM) | 0.5 (≈ 0.616 µM) | 0.008 (≈ 0.00985 µM) | 0.008 (≈ 0.00985 µM) | 0.008 (≈ 0.00985 µM) | 0.25 (≈ 0.308 µM) | 0.015 (≈ 0.0185 µM) | 0.03 (≈ 0.0369 µM) | 0.015 (≈ 0.0185 µM) | 0.015 (≈ 0.0185 µM) | 0.015 (≈ 0.0185 µM) | 0.015 (≈ 0.0185 µM) | 0.008 (≈ 0.00985 µM) | 0.12 (≈ 0.148 µM) | 
CC[C@H]1OC(=O)[C@H](C)[C@@H](O[C@H]2C[C@@](C)(OC)[C@@H](O)[C@H](C)O2)[C@H](C)[C@@H](O[C@@H]2O[C@H](C)C[C@H](N(C)C)[C@H]2O)[C@](C)(O)C[C@@H](C)C(=O)[C@H](C)[C@@H](O)[C@]1(C)O [ERYTHROMYCIN] | 0.5 (≈ 0.681 µM) | > 16 | > 16 |  | > 16 |  | 0.25 (≈ 0.341 µM) | > 16 | 0.03 (≈ 0.0409 µM) | 0.06 (≈ 0.0818 µM) | 0.03 (≈ 0.0409 µM) | > 1 | > 1 |  | 0.03 (≈ 0.0409 µM) | 0.06 (≈ 0.0818 µM) | 0.03 (≈ 0.0409 µM) | 0.5 (≈ 0.681 µM) | 0.03 (≈ 0.0409 µM) | > 1 | 
CC(=O)NC[C@H]1CN(c2ccc(N3CCOCC3)c(F)c2)C(=O)O1 [LINEZOLID] | 2 (≈ 5.93 µM) | 2 (≈ 5.93 µM) | 2 (≈ 5.93 µM) | 2 (≈ 5.93 µM) | 2 (≈ 5.93 µM) | 2 (≈ 5.93 µM) | 1 (≈ 2.96 µM) | 2 (≈ 5.93 µM) | 1 (≈ 2.96 µM) | 1 (≈ 2.96 µM) | 1 (≈ 2.96 µM) | 1 (≈ 2.96 µM) | 1 (≈ 2.96 µM) | 1 (≈ 2.96 µM) |  |  | 1 (≈ 2.96 µM) | 1 (≈ 2.96 µM) | 1 (≈ 2.96 µM) | 1 (≈ 2.96 µM) | MIC [7]: 1 µg/mL (≈ 2.96 µM); MIC50 [4]: 2 µg/mL (≈ 5.93 µM); MIC90 [4]: 2 µg/mL (≈ 5.93 µM); MIC50 [5]: 2 µg/mL (≈ 5.93 µM); MIC90 [5]: 2 µg/mL (≈ 5.93 µM); MIC50 [14]: 2 µg/mL (≈ 5.93 µM); MIC90 [14]: 2 µg/mL (≈ 5.93 µM); MIC50 [6]: 2 µg/mL (≈ 5.93 µM); MIC90 [6]: 2 µg/mL (≈ 5.93 µM)
Cc1onc(-c2ccccc2)c1C(=O)N[C@@H]1C(=O)N2[C@@H]1SC(C)(C)[C@@H]2C(=O)O [OXACILLIN] | 0.25 (≈ 0.623 µM) | 0.5 (≈ 1.25 µM) | > 4 | > 4 | > 4 | > 4 | 0.12 (≈ 0.299 µM) | 0.12 (≈ 0.299 µM) |  |  |  |  |  |  |  |  |  |  |  |  | 
CCC[C@@H]1C[C@@H](C(=O)N[C@@H]([C@H]2O[C@H](SC)[C@H](O)[C@@H](O)[C@H]2O)[C@H](C)Cl)N(C)C1 [CLINDAMYCIN] | ≤ 0.5 | ≤ 0.5 |  | > 4 |  | > 4 | ≤ 0.5 | ≤ 0.5 | 0.06 (≈ 0.141 µM) | 0.06 (≈ 0.141 µM) | 0.06 (≈ 0.141 µM) | > 0.25 | > 0.25 |  | ≤ 0.03 | 0.06 (≈ 0.141 µM) | 0.06 (≈ 0.141 µM) | 0.06 (≈ 0.141 µM) | ≤ 0.03 | > 0.25 | MIC [1]: ≤ 0.5 µg/mL; MIC [7]: ≤ 0.5 µg/mL; MIC [11]: ≤ 0.03 µg/mL; MIC [13]: ≤ 0.03 µg/mL
CO/N=C(\C(=O)N[C@@H]1C(=O)N2C(C(=O)O)=C(CSc3nc(=O)c(O)nn3C)CS[C@H]12)c1csc(N)n1 [CEFTRIAXONE] |  |  |  |  |  |  |  |  | 0.03 (≈ 0.0541 µM) | 0.03 (≈ 0.0541 µM) | 0.12 (≈ 0.216 µM) | 1 (≈ 1.8 µM) | 1 (≈ 1.8 µM) | 2 (≈ 3.61 µM) | 0.03 (≈ 0.0541 µM) | 0.03 (≈ 0.0541 µM) | 0.06 (≈ 0.108 µM) | 0.06 (≈ 0.108 µM) | 0.12 (≈ 0.216 µM) | 2 (≈ 3.61 µM) | 
CN(C)[C@@H]1C(O)=C(C(N)=O)C(=O)[C@@]2(O)C(O)=C3C(=O)c4c(O)cccc4[C@@](C)(O)[C@H]3C[C@@H]12 [TETRACYCLINE] |  |  |  |  |  |  |  |  | 0.12 (≈ 0.27 µM) | 0.25 (≈ 0.563 µM) | 0.25 (≈ 0.563 µM) | > 8 | 0.25 (≈ 0.563 µM) |  | 0.12 (≈ 0.27 µM) | > 8 | > 8 | > 8 | 0.5 (≈ 1.13 µM) | > 8 | MIC [11]: 0.12 µg/mL (≈ 0.27 µM)
CO/N=C(\C(=O)N[C@@H]1C(=O)N2C(C(=O)O)=C(COC(N)=O)CS[C@H]12)c1ccco1 [CEFUROXIME] |  |  |  |  |  |  |  |  | ≤ 0.12 | ≤ 0.12 | 0.5 (≈ 1.18 µM) | 4 (≈ 9.43 µM) | > 4 | > 4 | ≤ 0.12 | ≤ 0.12 | ≤ 0.12 | ≤ 0.12 | ≤ 0.12 | 2 (≈ 4.71 µM) | MIC [8]: ≤ 0.12 µg/mL; MIC [10]: ≥ 4 µg/mL; MIC [11]: ≤ 0.12 µg/mL; MIC [12]: ≤ 0.12 µg/mL; MIC [13]: ≤ 0.12 µg/mL
C[C@H]1COc2c(N3CCN(C)CC3)c(F)cc3c(=O)c(C(=O)O)cn1c23.C[C@H]1COc2c(N3CCN(C)CC3)c(F)cc3c(=O)c(C(=O)O)cn1c23.O [LEVOFLOXACIN] |  |  |  |  |  |  |  |  | 0.5 | 1 | 0.5 | 1 | 0.5 | 4 | 0.5 | 0.5 | 0.5 | 1 | 0.5 | 1 | 
CC1(C)S[C@@H]2[C@H](NC(=O)[C@H](N)c3ccccc3)C(=O)N2[C@H]1C(=O)O [AMPICILLIN] |  |  |  |  |  |  |  |  |  |  |  |  |  |  |  |  |  |  |  |  | MIC50 [4]: 1 µg/mL (≈ 2.86 µM); MIC90 [4]: 2 µg/mL (≈ 5.72 µM); MIC [5]: 1 µg/mL (≈ 2.86 µM); MIC50 [5]: 1 µg/mL (≈ 2.86 µM); MIC90 [5]: 4 µg/mL (≈ 11.4 µM); MIC50 [14]: 64 µg/mL (≈ 183 µM); MIC90 [14]: 128 µg/mL (≈ 366 µM); MIC50 [6]: 128 µg/mL (≈ 366 µM); MIC90 [6]: 128 µg/mL (≈ 366 µM)
CNC1C(O)C(OC2C(N)CC(N)C(OC3OC(CN)CCC3N)C2O)OCC1(C)O (centres undefined) [GENTAMICIN C1A] | 0.25 (≈ 0.556 µM) | 1 (≈ 2.22 µM) | 0.5 (≈ 1.11 µM) | > 16 | 8 (≈ 17.8 µM) | > 16 | ≤ 0.06 | ≤ 0.06 |  |  |  |  |  |  |  |  |  |  |  |  | MIC [7]: ≤ 0.06 µg/mL
